# Measurements taken from patent publication US9682974B2, “Heteroaryl substituted pyrazoles” (BAYER PHARMA AKTIENGESELLSCHAFT, priority 2013, dated 2017).
# What was measured:
# [1] = target: T1, catalytic domain of human Bub1 (amino acids 704-1085) (Homo sapiens, UniProt O43683); experiment: Bub1 kinase assay (TR-FRET); format: biochemical; settings: 10 μM ATP, 1 μM peptide substrate, read-out: Biological Assay 1: Bub1 kinase assay median IC50
# T1 construct: catalytic domain of human Bub1 (amino acids 704-1085); His6 (N); made in house; host or cells: Hi5 insect cells
# T1 sequence (O43683 704-1085): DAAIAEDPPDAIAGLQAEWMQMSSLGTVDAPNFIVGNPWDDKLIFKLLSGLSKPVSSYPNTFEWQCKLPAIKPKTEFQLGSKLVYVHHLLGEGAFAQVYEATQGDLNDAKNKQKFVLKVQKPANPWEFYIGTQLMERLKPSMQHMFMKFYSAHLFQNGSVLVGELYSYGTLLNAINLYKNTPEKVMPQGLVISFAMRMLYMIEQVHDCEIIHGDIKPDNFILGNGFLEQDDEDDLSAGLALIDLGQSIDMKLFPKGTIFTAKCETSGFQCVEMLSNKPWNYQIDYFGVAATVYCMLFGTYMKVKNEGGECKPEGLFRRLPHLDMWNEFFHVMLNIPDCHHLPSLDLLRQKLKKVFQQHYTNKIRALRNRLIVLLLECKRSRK
# From the text: Bub1-inhibitory activities of compounds described in the present invention were quantified using a time-resolved fluorescence energy transfer (TR-FRET) kinase assay which measures phosphorylation of the synthetic peptide Biotin-Ahx-VLLPKKSFAEPG (SEQ ID No. 1) (C-terminus in amide form), purchased from e.g. Biosyntan (Berlin, Germany) by the (recombinant) catalytic domain of human Bub1 (amino acids 704-1085), expressed in Hi5 insect cells with an N-terminal His6-tag and purified by affinity- (Ni-NTA) and size exclusion chromatography.
# In a typical assay 11 different concentrations of each compound (0.1 nM, 0.33 nM, 1.1 nM, 3.8 nM, 13 nM, 44 nM, 0.15 μM, 0.51 μM, 1.7 μM, 5.9 μM and 20 μM) were tested in duplicate within the same microtiter plate. To this end, 100-fold concentrated compound solutions (in DMSO) were previously prepared by serial dilution (1:3.4) of 2 mM stocks in a clear low volume 384-well source microtiter plate (Greiner Bio-One, Frickenhausen, Germany), from which 50 nL of compounds were transferred into a black low volume test microtiter plate from the same supplier. Subsequently, 2 μL of Bub1 (the final concentration of Bub1 was adjusted depending on the activity of the enzyme lot in order to be within the linear dynamic range of the assay: typically ˜200 ng/mL were used) in aqueous assay buffer [50 mM Tris/HCl pH 7.5, 10 mM magnesium chloride (MgCl2), 200 mM potassium chloride (KCl), 1.0 mM dithiothreitol (DTT), 0.1 mM sodium ortho-vanadate, 1% (v/v) glycerol, 0.01% (w/v) bovine serum albumine (BSA), 0.005% (v/v) Trition X-100 (Sigma), 1× Complete EDTA-free protease inhibitor mixture (Roche)] were added to the compounds in the test plate and the mixture was incubated for 15 min at 22° C. to allow pre-equilibration of the putative enzyme-inhibitor complexes before the start of the kinase reaction, which was initiated by the addition of 3 μL 1.67-fold concentrated solution (in assay buffer) of adenosine-tri-phosphate (ATP, 10 μM final concentration) and peptide substrate (1 μM final concentration). The resulting mixture (5 μL final volume) was incubated at 22° C. during 60 min., and the reaction was stopped by the addition of 5 μL of an aqueous EDTA-solution (50 mM EDTA, in 100 mM HEPES pH 7.5 and 0.2% (w/v) bovine serum albumin) which also contained the TR-FRET detection reagents (0.2 μM streptavidin-XL665 [Cisbio Bioassays, Codolet, France] and 1 nM anti-phosho-Serine antibody [Merck Millipore, cat. #35-001] and 0.4 nM LANCE EU-W1024 labeled anti-mouse IgG antibody [Perkin-Elmer, product no. AD0077, alternatively a Terbium-cryptate-labeled anti-mouse IgG antibody from Cisbio Bioassays can be used]). The stopped reaction mixture was further incubated 1 h at 22° C. in order to allow the formation of complexes between peptides and detection reagents. Subsequently, the amount of product was evaluated by measurement of the resonance energy transfer from the Eu-chelate-antibody complex recognizing the Phosphoserine residue to the streptavidin-XL665 bound to the biotin moiety of the peptide. To this end, the fluorescence emissions at 620 nm and 665 nm after excitation at 330-350 nm were measured in a TR-FRET plate reader, e.g. a Rubystar or Pherastar (both from BMG Labtechnologies, Offenburg, Germany) or a Viewlux (Perkin-Elmer) and the ratio of the emissions (665 nm/622 nm) was taken as indicator for the amount of phosphorylated substrate. The data were normalised using two sets of (typically 32-) control wells for high- (=enzyme reaction without inhibitor=0%=Minimum inhibition) and low- (=all assay components without enzyme=100%=Maximum inhibition) Bub1 activity. […] values were calculated by fitting the normalized inhibition data to a 4-parameter logistic equation (Minimum, Maximum, IC50, Hill; Y=Max+(Min−Max)/(1+(X/IC50)Hill)).
# [2] = tested on: HeLa human cervical cancer cell line; experiment: Proliferation assay (HeLa cell line), crystal violet staining; format: cell-based; settings: 96 h, HeLa cells, 4 days incubation, read-out: Biological Assay 2: Proliferation assay (HeLa cell line) median IC50
# Description: Cultivated tumor cells (cells were ordered from ATCC) were plated at a density of 3000 cells/well in a 96-well multititer plate in 200 μL of growth medium supplemented 10% fetal calf serum. After 24 hours, the cells of one plate (zero-point plate) were stained with crystal violet (see below), while the medium of the other plates was replaced by fresh culture medium (200 μL), to which the test substances were added in various concentrations (0 μM, as well as in the range of 0.001-10 μM; the final concentration of the solvent dimethyl sulfoxide was 0.5%). The cells were incubated for 4 days in the presence of test substances. Cell proliferation was determined by staining the cells with crystal violet: the cells were fixed by adding 20 μL/measuring point of an 11% glutaric aldehyde solution for 15 minutes at room temperature. After three washing cycles of the fixed cells with water, the plates were dried at room temperature. The cells were stained by adding 100 μL/measuring point of a 0.1% crystal violet solution (pH 3.0). After three washing cycles of the stained cells with water, the plates were dried at room temperature. The dye was dissolved by adding 100 μL/measuring point of a 10% acetic acid solution. Absorbtion was determined by photometry at a wavelength of 595 nm. The change of cell number, in percent, was calculated by normalization of the measured values to the absorbtion values of the zero-point plate (=0%) and the absorbtion of the untreated (0 μm) cells (=100%). The IC50 values were determined by means of a 4 parameter fit.
SMILES,IC50 [1] [nM],IC50 [2] [nM]
"CCOc1cc(F)c(Cn2nc(-c3cc(Nc4ccncn4)n(CCN4CCOCC4)n3)c(C)c2C2CC2)c(F)c1 [Example 2-1-1, 5′-cyclopropyl-1′-(4-ethoxy-2,6-difluorobenzyl)-4′-methyl-1-[2-(morpholin-4-yl)ethyl]-N-(pyrimidin-4-yl)-1H,1′H-3,3′-bipyrazol-5-amine]",680,–
"CCOc1cc(F)c(Cn2nc(-c3cc(Nc4ccncn4)n(C(C)=O)n3)c(C)c2C2CC2)c(F)c1 [Example 2-1-2, 1-[5′-cyclopropyl-1′-(4-ethoxy-2,6-difluorobenzyl)-4′-methyl-5-(pyrimidin-4-ylamino)-1H,1′H-3,3′-bipyrazol-1-yl]ethanone]",≥ 20000,> 10000
"CCOc1cc(F)c(Cn2nc(-c3cc(Nc4ccncn4)n(CC(=O)O)n3)c(C)c2C2CC2)c(F)c1 [Example 2-1-3, [5′-cyclopropyl-1′-(4-ethoxy-2,6-difluorobenzyl)-4′-methyl-5-(pyrimidin-4-ylamino)-1H,1′H-3,3′-bipyrazol-1-yl]acetic acid]",1100,> 10000
"CCOc1cc(F)c(Cn2nc(-c3cc(Nc4ccncn4)n(C)n3)c(C)c2C2CC2)c(F)c1 [Example 2-1-4, 5′-cyclopropyl-1′-(4-ethoxy-2,6-difluorobenzyl)-1,4′-dimethyl-N-(pyrimidin-4-yl)-1H,1′H-3,3′-bipyrazol-5-amine]",34,–
"CCOc1cc(F)c(Cn2nc(-c3cc(Nc4ccncn4)n(CCS(C)(=O)=O)n3)c(C)c2C2CC2)c(F)c1 [Example 2-2-1, 5′-cyclopropyl-1′-(4-ethoxy-2,6-difluorobenzyl)-4′-methyl-1-[2-(methylsulfonyl)ethyl]-N-(pyrimidin-4-yl)-1H,1′H-3,3′-bipyrazol-5-amine]",≥ 20000,–
"CCOc1cc(F)c(Cn2nc(-c3cc(Nc4ccncc4)n(C)n3)c(C)c2C2CC2)c(F)c1 [Example 2-3-1, 5′-cyclopropyl-1′-(4-ethoxy-2,6-difluorobenzyl)-1,4′-dimethyl-N-(pyridin-4-yl)-1H,1′H-3,3′-bipyrazol-5-amine]",390,3500
"CCOc1cc(F)c(Cn2nc(-c3nc(Nc4ccncc4)n(CCOC)n3)c(C)c2C2CC2)c(F)c1 [Example 2-3-2, N-{3-[5-cyclopropyl-1-(4-ethoxy-2,6-difluorobenzyl)-4-methyl-1H-pyrazol-3-yl]-1-(2-methoxyethyl)-1H-1,2,4-triazol-5-yl}pyridin-4-amine]",12,> 10000
"CCOc1cc(F)c(Cn2nc(-c3nc(Nc4ccncc4)n(CCO)n3)c(C)c2C2CC2)c(F)c1 [Example 2-3-3, 2-{3-[5-cyclopropyl-1-(4-ethoxy-2,6-difluorobenzyl)-4-methyl-1H-pyrazol-3-yl]-5-(pyridin-4-ylamino)-1H-1,2,4-triazol-1-yl}ethanol]",22,> 10000
"CCOc1cc(F)c(Cn2nc(-c3n[nH]c(Nc4ccncc4)n3)c(C)c2C2CC2)c(F)c1 [Example 2-3-4, N-{3-[5-cyclopropyl-1-(4-ethoxy-2,6-difluorobenzyl)-4-methyl-1H-pyrazol-3-yl]-1H-1,2,4-triazol-5-yl}pyridin-4-amine]",82,–
"CCOC(=O)c1cnccc1Nc1nc(-c2nn(Cc3c(F)cc(OCC)cc3F)c(C3CC3)c2C)nn1CCOC [Example 2-4-1, ethyl 4-({3-[5-cyclopropyl-1-(4-ethoxy-2,6-difluorobenzyl)-4-methyl-1H-pyrazol-3-yl]-1-(2-methoxyethyl)-1H-1,2,4-triazol-5-yl}amino)nicotinate]",91,–
"CCOc1cc(F)c(Cn2nc(-c3nc(Nc4ccncc4)n(CCOC)n3)c3ccccc32)c(F)c1 [Example 2-5-1, N-{3-[1-(4-ethoxy-2,6-difluorobenzyl)-1H-indazol-3-yl]-1-(2-methoxyethyl)-1H-1,2,4-triazol-5-yl}pyridin-4-amine]",13,–
"CCOc1cc(F)c(Cn2nc(-c3nc(Nc4ccncc4)nn3CCOC)c3ccccc32)c(F)c1 [Example 2-5-2, N-{5-[1-(4-ethoxy-2,6-difluorobenzyl)-1H-indazol-3-yl]-1-(2-methoxyethyl)-1H-1,2,4-triazol-3-yl}pyridin-4-amine]",600,–
"CCOc1cc(F)c(Cn2nc(-n3cc(Nc4ccncn4)cn3)c3ccccc32)c(F)c1 [Example 2-6-1, N-{1-[1-(4-ethoxy-2,6-difluorobenzyl)-1H-indazol-3-yl]-1H-pyrazol-4-yl}pyrimidin-4-amine]",26,> 10000
"Fc1ccccc1Cn1nc(-c2nsc(Nc3ccncc3)n2)c2ccccc21 [Example 2-7-1, N-{3-[1-(2-fluorobenzyl)-1H-indazol-3-yl]-1,2,4-thiadiazol-5-yl}-pyridin-4-amine]",2200,9100
